Results on eight molecules are retold here after PMC11345829, “Discovery of Potent Isoquinolinequinone N-Oxides to Overcome Cancer Multidrug Resistance” (Journal of Medicinal Chemistry, 2024).

Assay [1] has as its system NCI-H460. Description: SRB cell growth inhibition assay. The class given is cell-based. The note with it: Homo sapiens, 48 h, NSCLC sensitive, mean ± SEM. From the text:
(§1) Taking into consideration the promising results of preliminary NCI screening, nine compounds (1, 2, 3, 4, 5, 20, 23, 24, 25) were selected for further screening in two counterpart pairs of sensitive and MDR cell lines. […] Two distinct pairs of counterpart drug-sensitive and MDR human tumor cell lines were used, namely the non-small lung cancer (NSCLC) NCI-H460 (same cell line as in the NCI screen) and its MDR counterpart cell line NCI-H460/R and the colorectal cancer DLD1 and its MDR counterpart cell line DLD1-TxR (Table 3). The screening was performed using the SRB assay, and the GI50 for each compound was determined by interpolation on the attained concentration−response curves and compared with NCI60 screening data (SI, Figures S62−S63; Table S21).
(§2) Two pairs of drug-sensitive and multidrug-resistant (MDR) cell lines from human nonsmall cell lung cancer (NSCLC), NCI-H460 and NCI-H460/R, and colorectal cancer, DLD1 and DLD1-TxR, kindly provided by Dr M. Pešić (Belgrade, Serbia), were used to evaluate the growth inhibition potential of the compounds 1, 2, 3, 4, 5, 20, 23, 24, an 25.[76],[77] Additionally, growth inhibition assays were performed with compound 25 on two other NSCLC cell lines, A549 and NCI-H322, obtained from the American Type Culture Collection (ATCC) and the European Collection of Authenticated Cell Cultures, respectively. The A549 cell line was maintained in Dulbecco’s Modified Eagle Medium (DMEM) supplemented with 4.5 g/L Glucose with UltraGlutamine with sodium pyruvate (Lonza, Basel Stücki, Switzerland), enriched with 10% fetal bovine serum (FBS; Biowest, Nuaillé, France). The lung fibroblast MRC-5 cell line and the remaining NSCLC and colorectal cancer cell lines were cultured in Roswell Park Memorial Institute (RPMI) 1640 (with stable glutamine and 25 mM HEPES) medium (Biowest), supplemented with 10% fetal bovine serum. […] For the sulforhodamine B (SRB) and 3D cell culture assays, the media were supplemented with 5% FBS. The remaining experiments were performed with medium supplemented with 10% FBS.
(§3) Cells were seeded at a previously determined optimal cell concentration (5.0 × 10^4 cells/mL for NSCLC cells and the nontumorigenic MRC-5 cell line and 1.0 × 10^5 cells/mL for colorectal cancer cells) and incubated at 37 °C for 24 h. […] The SRB assay was performed as previously described.[78],[79] Briefly, after fixing cells with 10% (w/v) ice-cold trichloroacetic acid (Merck Life Science), the proteins were stained with 0.4% of SRB (Merck Life Science) in acetic acid (Merck Life Science). Following washing steps in acetic acid, the bound dye was solubilized with 10 mM Tris base solution (Merck Life Science). Absorbance was measured at 510 nm in a multiplate reader (Synergy Mx, Biotek Instruments Inc., Winooski, Vermont, USA) using the Gen5 software (Biotek Instruments Inc.).

A further assay has as its system DLD1. Description: SRB cell growth inhibition assay. Format: cell-based. To be noted: Homo sapiens, DLD-1, 48 h, colorectal cancer sensitive, mean ± SEM.
From the text: as §1, §2, §3

A further assay has as its system DLD1-TxR. In words: SRB cell growth inhibition assay. The class given is cell-based, human. The note with it: for selectivity ratio colorectal cancer: GI50 sensitive DLD1 / GI50 MDR DLD1-TxR; for GI50: Homo sapiens, 48 h, colorectal cancer MDR, mean ± SEM; for GI50 / GI50 concentration range against MDR DLD1-TxR: SRB assay; for GI50 concentration range against MDR DLD1-TxR: in words. The method, then: Two distinct pairs of counterpart drug-sensitive and MDR human tumor cell lines were used, namely the non-small lung cancer (NSCLC) NCI-H460 (same cell line as in the NCI screen) and its MDR counterpart cell line NCI-H460/R and the colorectal cancer DLD1 and its MDR counterpart cell line DLD1-TxR (Table 3). The screening was performed using the SRB assay, and the GI50 for each compound was determined by interpolation on the attained concentration−response curves and compared with NCI60 screening data (SI, Figures S62−S63; Table S21).
as §2, §3
Background: Sulforhodamine B stains cellular protein and so reports cell mass.

Assay [2] deals with NCI-H460. In words: NCI60 five-dose GI50 (NCI data). Format: cell-based. To be noted: Homo sapiens, NCI data provided for comparison, read-out: NSCLC NCI-H460 GI50 (NCI). The text has this: The concentration−response curve generated enables the determination of three criteria, GI50 (drug concentration at which 50% of cell growth is inhibited), total growth inhibition (TGI) and LC50 (drug concentration at which 50% of tumor cells are killed) which can be used to compare effectiveness against any compound tested in the screen since its inception.
S2.1 NCI Screening Assay Experimental details
NCI Screening Assay Experimental: Cancer cell growth assays (NCI60 screening) 5,6 One-dose study: Tested compounds were initially solubilised in DMSO, diluted into RPMI 1640 and 5% fetal bovine serum/L-glutamine, and added to 96-well plates containing cell lines previously cultured for 24 h. After 48 h incubation, the media were removed, and the cells were fixed and stained with sulforhodamine B to determine overall percent growth/ total protein content. Unbound dye was removed with five washes of 1% acetic acid, and the plates were allowed to air dry. The dye was then resolubilised in Tris buffer, and the colorimetric absorbance was measured (515 nm). Growth inhibition was measured relative to the response generated from proliferating cells cultured under identical conditions for 48 h. Data from one-dose experiments pertains to the percentage growth at […]
Five-dose study: Serial 5 × 10-fold dilution from an initial DMSO stock solution was performed, prior to incubation at each individual concentration (10 nM, 100 nM, 1 μM, 10 μM and 100 μM). Using seven absorbance measurements (time zero (Tz), control growth (C), and test growth in the presence of drug at the five concentration levels (Ti)), the percentage growth was calculated at each of the drug concentrations levels. Percentage growth inhibition was calculated as: [(Ti − Tz)/(C − Tz)] × 100 for concentrations for which Ti ≥ Tz, [(Ti − Tz)/Tz] × 100 for concentrations for which Ti < Tz. Three dose response parameters were calculated for each experimental agent. […]
was calculated from [(Ti − Tz)/(C − Tz)] × 100 = 50, which is the drug concentration resulting in a 50% reduction in the net protein increase (as measured by sulforhodamine B staining) in control cells during the drug incubation. The drug concentration resulting in total growth inhibition (TGI) was calculated from Ti = Tz. The LC50 (concentration of drug resulting in a 50% reduction in the measured protein at the end of the drug treatment as compared to that at the beginning) indicating a net loss of cells following treatment was calculated from [(Ti − Tz)/Tz] × 100 = −50. Values were calculated for each of these three parameters if the level of activity was reached; however, if the effect was not reached or was exceeded, the value for that parameter was expressed as greater or less than the maximum or minimum concentration tested.

Turning to `COC(=O)c1c2c(c(C)[n+]([O-])c1C)C(=O)C=C(NCc1ccccc1)C2=O` [Compound 2], the 50% growth inhibitory concentration (GI50) in the assay with NCI-H460 [1] stood at 1430 ± 130 nM; in the assay with DLD1, 2330 ± 380 nM; with DLD1-TxR, 880 ± 90 nM; in the assay with NCI-H460 [2], 2740 nM. Also, the “selectivity ratio colorectal cancer” value in the assay on DLD1-TxR is 2.7. Further, in the assay with DLD1-TxR, the “GI50 concentration range against MDR DLD1-TxR” value (from here on “GI50 concentration range”) is reported as “nanomolar range”.

In the case of `COC(=O)c1c2c(c(C)[n+]([O-])c1C)C(=O)C(NCc1ccc(F)cc1)=CC2=O` [Compound 4], the GI50 stood at 2700 ± 300 nM in the assay on NCI-H460 [1], 5940 ± 300 nM in the assay on DLD1, 3130 ± 100 nM in the assay with DLD1-TxR and 792 nM in the assay on NCI-H460 [2]. Further, the “selectivity ratio colorectal cancer” value in the assay on DLD1-TxR is listed as 1.9.

As for `COC(=O)c1c2c(c(C)[n+]([O-])c1C)C(=O)C=C(NCc1ccc(F)cc1)C2=O` [Compound 5], the GI50 is 560 ± 200 nM in the assay on NCI-H460 [1], 1220 ± 140 nM in the assay on DLD1, 670 ± 50 nM with DLD1-TxR and 525 nM with NCI-H460 [2]. For the same molecule, the “selectivity ratio colorectal cancer” value in the assay on DLD1-TxR turned out to be 1.8. Moreover, the “GI50 concentration range” value in the assay with DLD1-TxR is listed as “nanomolar range”.

Regarding `COC(=O)c1c2c(c(C)[n+]([O-])c1C)C(=O)C(NCc1ccc(O)cc1)=CC2=O` [Compound 20], the GI50 in the assay on NCI-H460 [1] worked out at 6020 ± 340 nM; in the assay on DLD1, 9670 ± 1150 nM; in the assay with DLD1-TxR, 5930 ± 550 nM; in the assay with NCI-H460 [2], 1580 nM. Further, the “selectivity ratio colorectal cancer” value with DLD1-TxR amounted to 1.6.

With `COC(=O)c1c2c(c[n+]([O-])c1C)C(=O)C=CC2=O` [Compound 23], the 50% growth inhibitory concentration (GI50) was 38000 ± 8320 nM in the assay with NCI-H460 [1], 30200 ± 4080 nM in the assay with DLD1, 14900 ± 680 nM in the assay with DLD1-TxR and 12800 nM in the assay with NCI-H460 [2]. Also, the “selectivity ratio colorectal cancer” value in the assay with DLD1-TxR is given as 2.

`COC(=O)c1c2c(c[n+]([O-])c1C)C(=O)C(NCc1ccccc1)=CC2=O` [Compound 24]: the GI50 with NCI-H460 [1] turned out to be 750 ± 140 nM; in the assay with DLD1 it was 1390 ± 170 nM; in the assay on DLD1-TxR, 720 ± 30 nM; in the assay on NCI-H460 [2] it was 383 nM. Moreover, the “selectivity ratio colorectal cancer” value in the assay on DLD1-TxR is on record as 1.9. For the same molecule, in the assay with DLD1-TxR, the “GI50 concentration range” value is “nanomolar range”.

Consider `COC(=O)c1c2c(c[n+]([O-])c1C)C(=O)C=C(NCc1ccccc1)C2=O` [Compound 25], for which the GI50 worked out at 350 ± 20 nM in the assay on NCI-H460 [1], 610 ± 110 nM with DLD1, 420 ± 30 nM with DLD1-TxR and 210 nM in the assay with NCI-H460 [2]. In addition, the “selectivity ratio colorectal cancer” value with DLD1-TxR is reported as 1.5. Moreover, the “GI50 concentration range” value in the assay on DLD1-TxR was “nanomolar range”.

On to `COc1cccc2c1C(=O)c1c(O)c3c(c(O)c1C2=O)C[C@@](O)(C(=O)CO)C[C@@H]3O[C@H]1C[C@H](N)[C@H](O)[C@H](C)O1` [doxorubicin, reference compound], for which the GI50 in the assay with NCI-H460 [1] was 30 ± 10 nM.

For orientation: GI50 means the concentration giving 50% growth inhibition.
